In patent US20210198284A1, “GOLD COMPOSITIONS AND METHODS OF USE THEREOF” (THE UNIVERSITY OF MASSACHUSETTS, priority 2018, published 2021):

Assays:
Type in all cases: cell-based
[1] = tested on: K. pneumoniae ATCC 700603; assay: Antibacterial assay, MIC/MBC by broth microdilution (CLSI); settings: K. pneumoniae ATCC 700603; repeated twice, a/b = both values
Summary of the method: (§1)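 CLSI broth microdilution in cation-adjusted Mueller Hinton broth, log-phase inoculum diluted to 7.5×10^5 CFU/mL before 1:1 mixing with two-fold compound dilutions, triplicates, 18 h at 37 °C static. MIC: >90% inhibition by OD600; MBC: lowest concentration giving no colonies after 5 μL spotted on agar, 18 h, 37 °C.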

[2] = tested on: A. baumannii NCTC 13420; assay: as above; settings: A. baumannii NCTC 13420; for MIC: repeated twice, a/b = both values
Summary of the method: as §1

[3] = tested on: E. coli ATCC 25922; assay: as above; settings: for MIC: repeated twice, a/b = both values
Summary of the method: as §1

[4] = tested on: E. cloacae NCTC 13405; assay: as above; settings: E. cloacae NCTC 13405; for MIC: repeated twice, a/b = both values
Summary of the method: as §1

[5] = tested on: E. faecalis ATCC 700221; assay: as above; settings: for MIC: repeated twice, a/b = both values
Summary of the method: as §1

[6] = tested on: S. aureus JE2 (USA300); assay: as above; settings: S. aureus JE2 (USA300); for MIC: repeated twice, a/b = both values
Summary of the method: as §1

[7] = tested on: P. aeruginosa NCTC 13437; assay: as above; settings: P. aeruginosa NCTC 13437; for MIC: repeated twice, a/b = both values
Summary of the method: as §1

[8] = tested on: C. neoformans ATCC 208821; assay: Antifungal MIC; settings: C. neoformans ATCC 208821
[9] = tested on: A549 cells; assay: Cytotoxicity assay (resazurin); settings: 20 h, mean±S.E.M. from two independent experiments
Method: Sample preparation. The compounds were dissolved in DMSO at 12.8 mg/mL as the stock solutions, except for compounds 9-17, which were directly dissolved in the culture medium at 12.8 mg/mL. The stock solutions were diluted by the culture medium to the testing concentration at 128 μg/mL (compound 9-17 were diluted to 1,280 μg/mL). The solutions were then serially diluted two fold in a 96-well plate and were used in the cytotoxicity assay immediately.
Cell culture and cytotoxicity assay. A549 cells (ATCC CCL-185) were cultured in high glucose DMEM (Sigma-Aldrich, D6429) supplemented with 10% FBS, 1% penicillin-streptomycin solution (Sigma-Aldrich, P4333), 1% gentamicin solution (Sigma-Aldrich, G1272) and 1% amphotericin B solution (Sigma-Aldrich, A2942) at 37° C. in a humidified atmosphere containing 5% CO2. After cells reached 80%˜90% confluency, they were detached and counted using an Invitrogen Countess automated cell counter. Cells with viability over 90% were seeded at a density of 5×10^3 cells per well in 96-well cell culture plates. After overnight culture, the culture medium in each well removed with a pipet. 80 μL of the compound solutions from each well of the 96-well plate prepared above were transferred to this 96-well plate containing the cells, and the plates were incubated for 20 h. After addition of 8 μL of 110 μg/mL resazurin, the plates were incubated for further 3 h at 37° C. in 5% CO2. The fluorescence intensity was measured using a Tecan M200 Infinite Pro microplate reader at excitation 560 nm, emission 590 nm. IC50 were calculated by curve fitting the inhibition values vs. log(concentration) using GraphPad's Prism. The cytotoxicity assays (in triplicate) were repeated twice using freshly prepared cells and compound solutions.

[10] = tested on: C. albicans ATCC 90028; assay: Antifungal MIC

MIC [1] [μM/mL] | MIC [2] [μM/mL] | MIC [3] | MIC [4] | MIC [5] [μM/mL] | MIC [6] [μM/mL] | MIC [7] | MIC [8] [µg/mL] | MIC [10] [µg/mL] | SMILES | MBC (in brackets) [2] [μM/mL] | MBC (in brackets) [3] | MBC (in brackets) [5] | MBC (in brackets) [6] | IC50 against A549 cells [9] [µg/mL] | MBC (in brackets) [4] | MBC (in brackets) [7]
>328 | 82 | 21 (21) μM/mL | >328 μM/mL | 0.08 | 0.01 | >328 μM/mL | >32 | >32 | CC[P+](CC)(CC)[Au-][S][C@@H]1O[C@H](COC(C)=O)[C@@H](OC(C)=O)[C@H](OC(C)=O)[C@H]1NC(=O)C(Cl)(Cl)Cl [Compound 4, (3,4,6-Tri-O-acetyl-2-N-trichloroactyl-1-thio-β-D-glucopyranosato) (triethylphosphine) gold (I)] | 164 | 21 (21) μM/mL | (0.2) μM/mL | (0.01) μM/mL | 7.9 ± 0.1 |  | 
>265 | 66 | 33 (33) μM/mL | 265 (265) μM/mL | 0.1 | 0.03 | 132 (132) μM/mL | >32 | >32 | CC[P+](CC)(CC)[Au-][S][C@@H]1O[C@H](COC(C)=O)[C@@H](O[C@@H]2O[C@H](COC(C)=O)[C@H](OC(C)=O)[C@H](OC(C)=O)[C@H]2OC(C)=O)[C@H](OC(C)=O)[C@H]1OC(C)=O [Compound 6, [2,3,4,6-Tetra-O-acetyl-β-D-galactopyranosyl (1→4)-2,3,6-tri-O-acetyl-1-thio-β-D-glucopyranosato](triethylphosphine) gold(I)] | 132 | 33 (33) μM/mL | 0.3 μM/mL | (0.1) μM/mL | 29.8 ± 3.2 | 265 (265) μM/mL | 132 (132) μM/mL
